Patent US20110318375A1, “Immunomodulatory Therapeutic Agents” (priority 2009, published 2011)

Key:
Cytokine 12 Panel [1] = experiment: Cytokine 12 panel after oral peptide preparation taken daily for two weeks; format: in vivo, human; conditions: Pre: prior to the IV dose, 4 weeks after oral dosing
Text: Peptide was suspended in an appropriate medium and a healthy volunteer took the preparation daily for two weeks, drawing blood for a cytokine 12 panel every five days. Due to the size of the molecules absorption from the mucosal route seemed unlikely, and the rapid digestion of peptides in the stomach would eliminate their efficacy in a true oral route. This same healthy volunteer had lab work drawn right before receiving an IV dose of synthetic Fibrinopeptide A. The IV dose was expected to have a more profound therapeutic effect, since treatment was simulating a normal intravascular biologic process. […] (Table 3). [table]

Ponto Toro Virus = format: in vivo, mice; conditions: Ponto Toro infection, one dose; placebo group 25% survived
Cytokine 12 Panel [2] = experiment: Cytokine 12 panel, oral daily dosing with 3 mg Fibrinopeptide A (Table 5); format: in vivo, human; set-up: IL-10 / TNF-α / IL-2 / IL-12: unit not given here; conditions: for IFN-γ / IL-4 / IL-5 / IL-6 / IL-8 / IL-13: nl: 0-5; for IL-12: nl: 0-6; for IL-2: nl: 0-12; for IL-10: nl: 0-18; for TNF-α: nl: 0-22; for IL-1β: nl: 0-36; for IL-2R: nl: 0-1033
Text: [table] […] One of these patients was the same patient previously utilized, while the other was relatively neve to any previous Fibrinopeptide A treatment. The patient had taken two doses orally approximately seven weeks prior to this treatment, no lab work had been obtained with this prior dosing. […] Note the response in the IL-10 and IL-1b in this patient similar to the other patients. However, this patient return back toward baseline values much more rapidly than the other patients, accentuating the variability expected in this type of response from one patient to another. This also validates the efficacy of oral administration to achieve an anti-inflammatory/immunomodulatory benefit.

[3] = tested on: Experimental Allergic Encephalomyelitis (EAE); experiment: Acute Experimental Allergic Encephalomyelitis mouse model; format: in vivo, mice; conditions: daily, subcutaneous; recovery after day 22, worsened on days 27 and 28; p<0.1
Text: The carboxy terminus of activated Fibrinopeptide A was considered to be the active portion of the peptide, the carboxy terminus was PEGylate (addition of Poly Ethylene Glycol). This molecule was used to perform an EAE study. This study was designed to mimic the study done by Ruhenstroth-Bauer in 1981 utilizing two of these peptides, and showing some albeit mild benefit. The synthetic PEGylated peptide was expected to perform considerably better than the non-PEGylated peptide. Synthetic non-PEGylated peptide A was used as a positive control to compare the PEGylated verses non-PEGylated peptides. The medications were administered subcutaneously, due to this route having some efficacy in the cytokine profiles.
Test article 2 (PEGylated peptide) dosed daily, every 3 days and weekly never even approached statistically significant benefit.
During the first 22 days of the study EAE development in mice treated with test article 1 (daily non-PEGylated peptide A) was very similar to the vehicle-treated mice. […] Disease worsened in test article 1-treated mice on days 27 and 28 and became very similar to disease severity to the mice in the vehicle-treated group.

## ADSGEGDFLAEGGGV (listed as Homo sapiens) [Fibrinopeptide A]
Cytokine 12 Panel [1]; nl: 0-5
  IFN-γ: <5
  IL-4: <5
  IL-5: <5
  IL-6: 13
  IL-8: <5
Cytokine 12 Panel [1]; nl: 0-6
  IL-12: <5
Cytokine 12 Panel [1]; nl: 0-12
  IL-2: <5
Cytokine 12 Panel [1]; nl: 0-18
  IL-10: 96
Cytokine 12 Panel [1]; nl: 0-22
  TNF-α: <5
Cytokine 12 Panel [1]; nl: 0-36
  IL-1β: 52
Cytokine 12 Panel [1]; nl: 0-1033
  IL-2R: 550
Ponto Toro Virus
  mice that lived (overall survivability): 60%
Cytokine 12 Panel [2]; Off 1 Week
  IFN-γ: 5
  IL-4: <5
  IL-5: 5
  IL-6: 5
  IL-8: 8
  IL-13: 8
  IL-12: 6
  IL-2: 6
  IL-10: 28
  TNF-α: <5
  IL-1β: <5
  IL-2R: 147
Cytokine 12 Panel [2]; giving just Fibrinopeptide A
  elevation of Interleukin-13: does not result in an elevation
Cytokine 12 Panel [2]; oral daily 3 mg, 1 Week
  IFN-γ: <5
  IL-4: <5
  IL-5: <5
  IL-6: <5
  IL-8: <5
  IL-13: <5
  IL-12: <5
  IL-2: <5
  IL-10: 137
  TNF-α: <5
  IL-1β: 30
  IL-2R: 423
[3]
  difference in disease severity versus vehicle-treated mice: did not reach statistical significance
